From PubChem BioAssay (NCI)
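A five-concentration, 48-hour dose response in 96-well plates underlies each endpoint, interpolated linearly between surrounding concentrations. At the GI50, growth is halved. The concentration for full growth arrest is given as TGI.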

Assays:
Assay in all cases: NCI-60 cell line screen, 48 h; in the data active means GI50 below about 0.43 µM; inactive means the rest
[1] = system: M14 melanoma
[2] = system: UACC-62 melanoma
[3] = system: COLO 205 colon
[4] = system: OVCAR-4 ovarian
[5] = system: NCI-H460 lung
[6] = system: HT29 colon
[7] = system: RXF 393 renal
[8] = system: EKVX NSCLC
[9] = system: HL-60(TB) leukemia
[10] = system: SR leukemia

Cc1c(C)c2ccc(OC/C=C3\CCC(=O)O3)cc2oc1=O
35.3 µM: TGI [6]
24.7 µM: TGI [1]
28.3 µM: TGI [2]
inactive: GI50 [1] 11.4 µM | GI50 [2] 14.5 µM | GI50 [3] 16.4 µM | GI50 [4] 12.6 µM | GI50 [5] 16.4 µM | GI50 [6] 16.6 µM | GI50 [7] 14.2 µM | GI50 [8] 18.7 µM
28.2 µM: TGI [7]
35.6 µM: TGI [5]
40 µM: TGI [8]
28.9 µM: TGI [4]
48.9 µM: TGI [3]

CCO[C@@H]1C2C=CC(C2)[C@H]1[N+](=O)[O-] (some centres not stated)
> 100 µM: TGI [1] | TGI [2] | TGI [3] | TGI [9] | TGI [4] | TGI [5] | TGI [6] | TGI [7] | TGI [8]

Fc1ccc(Nc2nc(NCCNc3ccnc4cc(Cl)ccc34)nc(N3CCOCC3)n2)cc1
6.76 µM: TGI [7]
23.1 µM: TGI [4]
5.77 µM: TGI [6]
3.26 µM: TGI [3]
inactive: GI50 [1] 1.94 µM | GI50 [2] 2.65 µM | GI50 [3] 1.71 µM | GI50 [9] 1.8 µM | GI50 [4] 10.7 µM | GI50 [5] 3.44 µM | GI50 [10] 2.44 µM | GI50 [6] 2.27 µM | GI50 [7] 1.89 µM
4.89 µM: TGI [9]
3.66 µM: TGI [1]
7.6 µM: TGI [10]
14 µM: TGI [5]
7.35 µM: TGI [2]

O=C(O)CCC1CCc2cccc3occ1c23 (configuration not stated)
> 100 µM: TGI [1] | TGI [2] | TGI [3] | TGI [9] | TGI [4] | TGI [5] | TGI [6] | TGI [7] | TGI [8]

O=c1[nH]cnc2c(C3OC(CO)C(O)C3O)scc12 (configuration not stated)
inactive: GI50 [1] 56.5 µM | GI50 [2] > 100 µM | GI50 [3] > 100 µM | GI50 [9] 19.6 µM | GI50 [4] > 100 µM | GI50 [5] 74 µM | GI50 [6] > 100 µM | GI50 [7] > 100 µM | GI50 [8] > 100 µM
> 100 µM: TGI [1] | TGI [2] | TGI [3] | TGI [9] | TGI [4] | TGI [5] | TGI [6] | TGI [7] | TGI [8]

CCOc1ccc(NC(=O)CC2SC(N)=NC2=O)cc1 (configuration not stated)
> 100 µM: TGI [1] | TGI [2] | TGI [3] | TGI [9] | TGI [4] | TGI [5] | TGI [6] | TGI [7] | TGI [8]

COc1cc(Oc2c(O)c(C)c(OC)c(C(C)=O)c2O)c(C(C)=O)c(O)c1C
> 100 µM: TGI [1] | TGI [2] | TGI [3] | TGI [4] | TGI [5] | TGI [10] | TGI [6] | TGI [7]

COc1ccc2cc3n(c2c1)CCc1cc(OC)c(OC)cc1-3
> 100 µM: TGI [2] | TGI [3] | TGI [9] | TGI [4] | TGI [5] | TGI [6] | TGI [7] | TGI [8]

COc1ccc(-c2ccc(/C=N/n3c(COc4ccc(Cl)cc4)n[nH]c3=S)o2)c([N+](=O)[O-])c1
54.1 µM: TGI [8]
50.9 µM: TGI [6]
51.7 µM: TGI [2]
32.3 µM: TGI [7]
44.3 µM: TGI [9]
18.2 µM: TGI [4]
inactive: GI50 [1] 32.7 µM | GI50 [2] 17.8 µM | GI50 [3] 20.1 µM | GI50 [9] 14.8 µM | GI50 [4] 2.87 µM | GI50 [5] 13 µM | GI50 [6] 21.1 µM | GI50 [7] 12.7 µM | GI50 [8] 12.4 µM
32.8 µM: TGI [5]
45.2 µM: TGI [3]
> 100 µM: TGI [1]

O=C1C(=O)N(C2C3CC4CC(C3)CC2C4)C(=O)C(=O)C1c1nc2ccccc2o1 (configuration not stated)
> 100 µM: TGI [1] | TGI [2] | TGI [3] | TGI [4] | TGI [5] | TGI [7] | TGI [8]
49.9 µM: TGI [6]

CC(C)[C@@H](COC(C)(C)C)N=CN1CCc2c([nH]c3ccccc23)C1
> 100 µM: TGI [1] | TGI [2] | TGI [3] | TGI [9] | TGI [4] | TGI [5] | TGI [6] | TGI [7] | TGI [8]

C/C1=C\CC[C@@](C)(O)[C@@H]2CC3[C@@H](OC(=O)C34CC4)[C@@H](O2)[C@H](C)CCC1 (some centres not stated)
inactive: GI50 [2] 21.3 µM | GI50 [3] 24.2 µM | GI50 [9] 42.4 µM | GI50 [4] 38 µM | GI50 [5] 12 µM | GI50 [10] 19.9 µM | GI50 [6] 28.9 µM
> 100 µM: TGI [9] | TGI [4] | TGI [10] | TGI [6]
56.4 µM: TGI [2]
63.6 µM: TGI [3]
24.7 µM: TGI [5]

O=C1CCC2(c3ccccc3)Nc3cc(Cl)ccc3N12 (configuration not stated)
31.6 µM: TGI [3]
48.1 µM: TGI [9]
> 100 µM: TGI [1] | TGI [4] | TGI [5] | TGI [6] | TGI [7] | TGI [8]
56.4 µM: TGI [2]

CCOC(=O)c1cnn(-c2ccnc3c(C(F)(F)F)cccc23)c1N
inactive: GI50 [2] > 100 µM | GI50 [3] > 100 µM | GI50 [9] > 100 µM | GI50 [4] > 100 µM | GI50 [5] > 100 µM | GI50 [6] > 100 µM | GI50 [7] > 100 µM | GI50 [8] > 100 µM
> 100 µM: TGI [2] | TGI [3] | TGI [9] | TGI [4] | TGI [5] | TGI [6] | TGI [7] | TGI [8]

CC1=CC(=O)C(C(C)=Nc2ccccc2Cl)C(=O)O1 (configuration not stated)
> 100 µM: TGI [1] | TGI [2] | TGI [3] | TGI [9] | TGI [5] | TGI [6] | TGI [7] | TGI [8]
inactive: GI50 [1] > 100 µM | GI50 [2] > 100 µM | GI50 [3] > 100 µM | GI50 [9] > 100 µM | GI50 [5] > 100 µM | GI50 [6] > 100 µM | GI50 [7] > 100 µM | GI50 [8] > 100 µM

CCOC(=O)N1CCN(S(=O)(=O)c2oc(-c3ccc(Cl)cc3)nc2C#N)CC1
46 µM: TGI [5]
7.15 µM: TGI [9]
3.67 µM: TGI [1]
3.25 µM: TGI [7]
12.7 µM: TGI [2]
4.25 µM: TGI [3]
5.5 µM: TGI [4]
inactive: GI50 [1] 1.59 µM | GI50 [2] 3.07 µM | GI50 [3] 2.05 µM | GI50 [9] 2.14 µM | GI50 [4] 2.36 µM | GI50 [5] 15 µM | GI50 [7] 1.82 µM | GI50 [8] 9.71 µM
27.2 µM: TGI [8]

Cc1cn2c(/C=N/N/C(N)=N\N)c(-c3ccc(Cl)c([N+](=O)[O-])c3)nc2s1
1.67 µM: TGI [2]
> 50 µM: TGI [9]
15.6 µM: TGI [8]
inactive: GI50 [2] 0.883 µM | GI50 [9] 25.2 µM | GI50 [8] 3.99 µM

CC(=O)C1=C([O-])C(C)OC1=O.CC(=O)C1=C([O-])C(C)OC1=O.[NH-]C1CCCC[C@H]1[NH-].[Pt+4] (configuration not stated)
> 100 µM: TGI [1] | TGI [2] | TGI [3] | TGI [9] | TGI [4] | TGI [5] | TGI [6] | TGI [7] | TGI [8]
inactive: GI50 [1] 85.3 µM | GI50 [2] 42.3 µM | GI50 [3] 35.1 µM | GI50 [9] 16.1 µM | GI50 [4] 88.9 µM | GI50 [5] 30.5 µM | GI50 [6] 63.3 µM | GI50 [7] > 100 µM | GI50 [8] > 100 µM

COc1ccc(COCC(Cn2ccnc2)OCc2ccc(C(=O)O)cc2)cc1 (configuration not stated)
> 100 µM: TGI [1] | TGI [2] | TGI [3] | TGI [9] | TGI [4] | TGI [5] | TGI [6] | TGI [7] | TGI [8]

CC1CC2(CC[C@@H]1O)OCCO2 (some centres not stated)
> 100 µM: TGI [1] | TGI [2] | TGI [3] | TGI [9] | TGI [4] | TGI [5] | TGI [6] | TGI [7] | TGI [8]

Cc1c2ccncc2c(C)c2c1[nH]c1ccc(OC(C)(C)C)cc12
4.21 µM: TGI [4]
3.83 µM: TGI [9]
3.12 µM: TGI [3]
14.9 µM: TGI [1]
7.09 µM: TGI [6]
5.43 µM: TGI [2]
36.2 µM: TGI [8]

CN(C)C(=O)C1CCC(=C2C(=O)OC(C)(C)OC2=O)N1C (configuration not stated)
> 100 µM: TGI [1] | TGI [2] | TGI [3] | TGI [4] | TGI [5] | TGI [6] | TGI [7] | TGI [8]

Nc1nc(Nc2cccc(F)c2)nc2ccccc12
80.7 µM: TGI [10]
68.4 µM: TGI [9]
34 µM: TGI [3]
> 100 µM: TGI [4]
57.3 µM: TGI [5]
45.3 µM: TGI [7]
inactive: GI50 [2] 17.8 µM | GI50 [3] 15.9 µM | GI50 [9] 25.5 µM | GI50 [4] 22.9 µM | GI50 [5] 20.1 µM | GI50 [10] 24.7 µM | GI50 [6] 21.4 µM | GI50 [7] 16.9 µM
38.3 µM: TGI [2]
39.3 µM: TGI [6]

Cc1cccc(C)c1NC(=O)CCCC(=O)C1CCC/C1=N\NC(=O)C(=O)NN (configuration not stated)
> 100 µM: TGI [1] | TGI [3] | TGI [9] | TGI [4] | TGI [5] | TGI [6] | TGI [7] | TGI [8]

CC(=O)OC1C2(CC3N4C(=O)C5(CO)SSC4(CC31O)C(=O)N5C)OC(C)C(C)(C)C2=O (configuration not stated)
0.151 µM: TGI [7]
0.0322 µM: TGI [2]
0.217 µM: TGI [5]
0.722 µM: TGI [1]
0.709 µM: TGI [8]
0.0345 µM: TGI [4]
active: GI50 [1] 0.253 µM | GI50 [2] 0.0103 µM | GI50 [9] 0.0379 µM | GI50 [4] < 0.0114 µM | GI50 [5] < 0.0485 µM | GI50 [6] < 0.01 µM | GI50 [7] 0.0473 µM | GI50 [8] 0.124 µM

CCC1CN2CCc3cc(OC)c(OC)cc3C2CC1CC1c2cc(OC)c(OC)cc2CCN1C(=O)CNC(=O)OC(C)(C)C (configuration not stated)
51.2 µM: TGI [7]
46.4 µM: TGI [5]
17.6 µM: TGI [9]
32.9 µM: TGI [8]
7.98 µM: TGI [4]
56.4 µM: TGI [2]
12.7 µM: TGI [3]
> 100 µM: TGI [6]

Clc1ccc2nc(Oc3ccccc3)cnc2c1
inactive: GI50 [1] > 100 µM | GI50 [2] > 100 µM | GI50 [3] > 100 µM | GI50 [9] > 100 µM | GI50 [4] > 100 µM | GI50 [5] > 100 µM | GI50 [6] > 100 µM | GI50 [7] > 100 µM | GI50 [8] > 100 µM
> 100 µM: TGI [1] | TGI [2] | TGI [3] | TGI [9] | TGI [4] | TGI [5] | TGI [6] | TGI [7] | TGI [8]
